Experimental data as given in patent publication US12178210B2, “Insect attractant and killing system” (priority 2020, dated 2024).
Like-named read-outs stand apart in the source and are kept apart here.

Experiments:
[1] = for Attractant Release Rate (5-day average per time point): Ambient Temperature
Source text: All prototype lure devices (i.e., the attractant receptacle and permeable membrane with enclosed volatile insect attractant) were constructed using polypropylene/calcium carbonate film (UV8) for the permeable membrane and Scotchpak™ (3M) polyester laminate film for the impermeable barrier material. Each lure device measured approximately 11.5 cm×5.5 cm with a 1.6 mm ( 1/16 in) diameter spherical punch in the impermeable layer exposing the membrane and an ˜8 mm ( 5/16 in) diameter heat seal around the circumference of the punch (referred to as a ring seal). […] Prior to being deployed the lures were weighed on an analytical balance (Sartorius, Universal; resolution of 0.01 g). Prototype lures were attached to a cord that ran the length of ventilated laboratory fume hood, with 5-8 cm (2-3 in) separating each lure in an open, ventilated room at the indicated temperature (18-20° C. or 39-41° C.). Every 2-3 days the lures were removed from the cord and weighed on the same scale. Lure weight was recorded and the weight loss (g/day) was calculated. In addition to prototype lures, two controls were included in the study consisting of a current Suterra lure product (WHF lure) and a competitor product (Comp. Prod. 1).

[2] = field, Valencia
Procedure: Every two weeks samples of the attractant were weighed to determine the mass. From the mass, the mass that had been released, the mass remaining, and the amount of ammonia released was determined.

N.NC(=O)O [Ammonium Carbamate, ammonium carbamate]
Release Rate ([1]; 40° C., 16 hours, UV8 membrane, 1.6 mm orifice): 0.49 g/day | Release Rate ([1]; 40° C., 16 hours, second, unexplained block of rows): 0.02 g/day | Release Rate ([1]; 40° C., 24 hours, UV8 membrane, 1.6 mm orifice): 0.49 g/day | Release Rate ([1]; 40° C., 24 hours, second, unexplained block of rows): 0.01 g/day | Release Rate ([1]; 40° C., 51 hours, UV8 membrane, 1.6 mm orifice): 0.46 g/day | Release Rate ([1]; 40° C., 51 hours, second, unexplained block of rows): 0.01 g/day | Release Rate ([1]; 40° C., 88 hours, UV8 membrane, 1.6 mm orifice): 0.45 g/day | Release Rate ([1]; 40° C., 88 hours, second, unexplained block of rows): 0.04 g/day | Release Rate ([1]; 40° C., 96 hours, UV8 membrane, 1.6 mm orifice): 0.46 g/day | Release Rate ([1]; 40° C., 96 hours, second, unexplained block of rows): 0.06 g/day | Release Rate ([1]; 40° C., 112 hours, UV8 membrane, 1.6 mm orifice): 0.46 g/day | Release Rate ([1]; 40° C., 112 hours, second, unexplained block of rows): 0.08 g/day | Release Rate ([1]; 40° C., 120 hours, UV8 membrane, 1.6 mm orifice): 0.46 g/day | Release Rate ([1]; 40° C., 120 hours, second, unexplained block of rows): 0.09 g/day | Release Rate ([1]; 40° C., 144 hours, UV8 membrane, 1.6 mm orifice): 0.46 g/day | Release Rate ([1]; 40° C., 144 hours, second, unexplained block of rows): 0.11 g/day | Release Rate ([1]; 40° C., 168 hours, UV8 membrane, 1.6 mm orifice): 0.46 g/day | Release Rate ([1]; 40° C., 168 hours, second, unexplained block of rows): 0.13 g/day | Attractant Release Rate (5-day average per time point) ([1]; day 5, 15 g, UV8 membrane, 1.6 mm orifice): 89.2 mg/day | Attractant Release Rate (5-day average per time point) ([1]; day 10, 15 g, UV8 membrane, 1.6 mm orifice): 93.6 mg/day | Attractant Release Rate (5-day average per time point) ([1]; day 15, 15 g, UV8 membrane, 1.6 mm orifice): 97.0 mg/day | Attractant Release Rate (5-day average per time point) ([1]; day 20, 15 g, UV8 membrane, 1.6 mm orifice): 101.0 mg/day | Attractant Release Rate (5-day average per time point) ([1]; day 25, 15 g, UV8 membrane, 1.6 mm orifice): 100.0 mg/day | Attractant Release Rate (5-day average per time point) ([1]; day 30, 15 g, UV8 membrane, 1.6 mm orifice): 105.3 mg/day | Attractant Release Rate (5-day average per time point) ([1]; day 40, 15 g, UV8 membrane, 1.6 mm orifice): 99.6 mg/day | Attractant Release Rate (5-day average per time point) ([1]; day 49, 15 g, UV8 membrane, 1.6 mm orifice): 113.5 mg/day | Attractant Release Rate (5-day average per time point) ([1]; day 55, 15 g, UV8 membrane, 1.6 mm orifice): 114.3 mg/day | Release Rate ([1]; Ambient, 16 hours, UV8 membrane, 1.6 mm orifice): 0.09 g/day | Release Rate ([1]; Ambient, 16 hours, second, unexplained block of rows): 0.00 g/day | Release Rate ([1]; Ambient, 24 hours, UV8 membrane, 1.6 mm orifice): 0.10 g/day | Release Rate ([1]; Ambient, 24 hours, second, unexplained block of rows): 0.01 g/day | Release Rate ([1]; Ambient, 51 hours, UV8 membrane, 1.6 mm orifice): 0.10 g/day | Release Rate ([1]; Ambient, 51 hours, second, unexplained block of rows): 0.00 g/day | Release Rate ([1]; Ambient, 88 hours, UV8 membrane, 1.6 mm orifice): 0.10 g/day | Release Rate ([1]; Ambient, 88 hours, second, unexplained block of rows): 0.02 g/day | Release Rate ([1]; Ambient, 96 hours, UV8 membrane, 1.6 mm orifice): 0.10 g/day | Release Rate ([1]; Ambient, 96 hours, second, unexplained block of rows): 0.02 g/day | Release Rate ([1]; Ambient, 112 hours, UV8 membrane, 1.6 mm orifice): 0.10 g/day | Release Rate ([1]; Ambient, 112 hours, second, unexplained block of rows): 0.02 g/day | Release Rate ([1]; Ambient, 120 hours, UV8 membrane, 1.6 mm orifice): 0.10 g/day | Release Rate ([1]; Ambient, 120 hours, second, unexplained block of rows): 0.00 g/day | Release Rate ([1]; Ambient, 144 hours, UV8 membrane, 1.6 mm orifice): 0.10 g/day | Release Rate ([1]; Ambient, 144 hours, second, unexplained block of rows): 0.00 g/day | Release Rate ([1]; Ambient, 168 hours, UV8 membrane, 1.6 mm orifice): 0.10 g/day | Release Rate ([1]; Ambient, 168 hours, second, unexplained block of rows): 0.00 g/day | Attractant Release Rate (5-day average per time point) ([1]; day 5, CM): 393.2 mg/day | Attractant Release Rate (5-day average per time point) ([1]; day 10, CM): 387.2 mg/day | Attractant Release Rate (5-day average per time point) ([1]; day 15, CM): 362.0 mg/day | Attractant Release Rate (5-day average per time point) ([1]; day 20, CM): 356.0 mg/day | Attractant Release Rate (5-day average per time point) ([1]; day 25, CM): 331.6 mg/day | Attractant Release Rate (5-day average per time point) ([1]; day 30, CM): 311.7 mg/day | Attractant Release Rate (5-day average per time point) ([1]; day 35, CM): 306.5 mg/day | Attractant Release Rate (5-day average per time point) ([1]; day 40, CM): 266.0 mg/day | Attractant Release Rate (5-day average per time point) ([1]; day 45, CM): 191.6 mg/day | Attractant Release Rate (5-day average per time point) ([1]; day 49, CM): 94.0 mg/day | Attractant Release Rate (5-day average per time point) ([1]; day 55, CM): 10.3 mg/day | Avg. Mass Loss ([2]; week 0, ave. temp. 25.10 ° C): 0.00 g | Avg. Mass Remaining ([2]; week 0, ave. temp. 25.10 ° C): 16.90 g | Avg. Release Rate ([2]; week 0, ave. temp. 25.10 ° C): 0.000 g/day | Avg. Mass Loss ([2]; week 2, ave. temp. 26.30 ° C): 0.75 g | Avg. Mass Remaining ([2]; week 2, ave. temp. 26.30 ° C): 16.15 g | Avg. Release Rate ([2]; week 2, ave. temp. 26.30 ° C): 0.054 g/day | Avg. Mass Loss ([2]; week 4, ave. temp. 26.90 ° C): 1.75 g | Avg. Mass Remaining ([2]; week 4, ave. temp. 26.90 ° C): 15.15 g | Avg. Release Rate ([2]; week 4, ave. temp. 26.90 ° C): 0.071 g/day | Avg. Mass Loss ([2]; week 6, ave. temp. 27.10 ° C): 2.65 g | Avg. Mass Remaining ([2]; week 6, ave. temp. 27.10 ° C): 14.25 g | Avg. Release Rate ([2]; week 6, ave. temp. 27.10 ° C): 0.064 g/day | Avg. Mass Loss ([2]; week 8, ave. temp. 24.40 ° C): 3.48 g | Avg. Mass Remaining ([2]; week 8, ave. temp. 24.40 ° C): 13.42 g | Avg. Release Rate ([2]; week 8, ave. temp. 24.40 ° C): 0.059 g/day | Avg. Mass Loss ([2]; week 10, ave. temp. 22.60 ° C): 4.17 g | Avg. Mass Remaining ([2]; week 10, ave. temp. 22.60 ° C): 12.72 g | Avg. Release Rate ([2]; week 10, ave. temp. 22.60 ° C): 0.050 g/day | Avg. Mass Loss ([2]; week 12, ave. temp. 21.50 ° C): 4.82 g | Avg. Mass Remaining ([2]; week 12, ave. temp. 21.50 ° C): 12.08 g | Avg. Release Rate ([2]; week 12, ave. temp. 21.50 ° C): 0.046 g/day | Avg. Mass Loss ([2]; week 14, ave. temp. 19.90 ° C): 5.38 g | Avg. Mass Remaining ([2]; week 14, ave. temp. 19.90 ° C): 11.52 g | Avg. Release Rate ([2]; week 14, ave. temp. 19.90 ° C): 0.040 g/day | Avg. Mass Loss ([2]; week 16, ave. temp. 17.70 ° C): 5.72 g | Avg. Mass Remaining ([2]; week 16, ave. temp. 17.70 ° C): 11.18 g | Avg. Release Rate ([2]; week 16, ave. temp. 17.70 ° C): 0.024 g/day | Avg. Mass Loss ([2]; week 18, ave. temp. 15.30 ° C): 6.02 g | Avg. Mass Remaining ([2]; week 18, ave. temp. 15.30 ° C): 10.88 g | Avg. Release Rate ([2]; week 18, ave. temp. 15.30 ° C): 0.021 g/day | Avg. Mass Loss ([2]; week 20, ave. temp. 14.40 ° C): 6.26 g | Avg. Mass Remaining ([2]; week 20, ave. temp. 14.40 ° C): 10.64 g | Avg. Release Rate ([2]; week 20, ave. temp. 14.40 ° C): 0.017 g/day | Avg. Mass Loss ([2]; week 24, ave. temp. 11.70 ° C): 6.36 g | Avg. Mass Remaining ([2]; week 24, ave. temp. 11.70 ° C): 10.54 g | Avg. Release Rate ([2]; week 24, ave. temp. 11.70 ° C): 0.004 g/day | Avg. Mass Loss ([2]; week 28, ave. temp. […] C): 6.71 g | Avg. Mass Remaining ([2]; week 28, ave. temp. […] C): 10.19 g | Avg. Release Rate ([2]; week 28, ave. temp. […] C): 0.013 g/day | Avg. Mass Loss ([2]; week 31, ave. temp. […] C): 7.22 g | Avg. Mass Remaining ([2]; week 31, ave. temp. […] C): 9.67 g | Avg. Release Rate ([2]; week 31, ave. temp. […] C): 0.024 g/day | Avg. Mass Loss ([2]; week 35, ave. temp. 12.60 ° C): 7.63 g | Avg. Mass Remaining ([2]; week 35, ave. temp. 12.60 ° C): 9.26 g | Avg. Release Rate ([2]; week 35, ave. temp. 12.60 ° C): 0.015 g/day | Avg. Mass Loss ([2]; week 38, ave. temp. 13.50 ° C): 8.07 g | Avg. Mass Remaining ([2]; week 38, ave. temp. 13.50 ° C): 8.83 g | Avg. Release Rate ([2]; week 38, ave. temp. 13.50 ° C): 0.021 g/day | Avg. Mass Loss ([2]; week 39, ave. temp. 13.30 ° C): 8.24 g | Avg. Mass Remaining ([2]; week 39, ave. temp. 13.30 ° C): 8.66 g | Avg. Release Rate ([2]; week 39, ave. temp. 13.30 ° C): 0.024 g/day | Avg. Mass Loss ([2]; week 41, ave. temp. 15.80 ° C): 8.55 g | Avg. Mass Remaining ([2]; week 41, ave. temp. 15.80 ° C): 8.35 g | Avg. Release Rate ([2]; week 41, ave. temp. 15.80 ° C): 0.022 g/day | Avg. Mass Loss ([2]; week 43, ave. temp. 16.50 ° C): 8.79 g | Avg. Mass Remaining ([2]; week 43, ave. temp. 16.50 ° C): 8.11 g | Avg. Release Rate ([2]; week 43, ave. temp. 16.50 ° C): 0.017 g/day | Avg. Mass Loss ([2]; week 46, ave. temp. 18.10 ° C): 9.45 g | Avg. Mass Remaining ([2]; week 46, ave. temp. 18.10 ° C): 7.44 g | Avg. Release Rate ([2]; week 46, ave. temp. 18.10 ° C): 0.032 g/day | Avg. Mass Loss ([2]; week 47, ave. temp. 20.40 ° C): 9.75 g | Avg. Mass Remaining ([2]; week 47, ave. temp. 20.40 ° C): 7.14 g | Avg. Release Rate ([2]; week 47, ave. temp. 20.40 ° C): 0.043 g/day
